Measured values from article PMC4259414, “HS-133, a novel fluorescent phosphatidylinositol 3-kinase inhibitor as a potential imaging and anticancer agent for targeted therapy” (Oncotarget, 2014).
Where two headings read alike, the source gives them in different places.

Columns and labels:
[1] = pharmacokinetic study in mouse; format: in vivo; settings: plasma, ICR mice; for AUC(0-t): read-out: AUC0–24hr; for half-life: read-out: T1/2, λ (converted)
[2] = tested on: HIF-1α and VEGF in SkBr3 cells; assay: hypoxia-induced HIF-1α and VEGF, Western blotting and ELISA; format: cell-based, human
Description: Since HIF-1α is the major regulator of cellular adaptive responses to hypoxia, we examined the effect of HS-133 on the expression of the HIF-1α in SkBr3 cells. The cells were treated with various concentrations of HS-133 (1–50 μM) under hypoxic mimicking conditions induced by a treatment with 100 μM CoCl2 for 16 h. […] To further determine the effect of HS-133 on hypoxia-induced VEGF, an immediate downstream target gene of HIF-1α, the protein and production of VEGF were measured by western blotting and ELISA in the SkBr3 cells.
(§1) The cells were washed three times with ice-cold PBS before lysis, and were lysed with a buffer containing 1% Triton X-100, 1% Nonidet P-40 (NP-40), as well as protease and phosphatase inhibitor cocktails (GenDEPOT, Barker, TX). Equal amounts of protein were separated by 10% sodium dodecyl sulfate-polyacrylamide gel electrophoresis (SDS-PAGE) and transferred onto the polyvinylidene fluoride (PVDF) membranes (Millipore, Bedford, MA). Immunostaining was performed by incubating the blots with primary antibodies, followed by horseradish peroxidase (HRP)-conjugated secondary antibody and detected with an enhanced chemiluminescence (ECL) plus system (Amersham Biosciences, Piscataway, NJ). […]
The amount of VEGF secreted into the media was measured by sandwich ELISA. […] The absorbance at 450 nm was measured with a 96-well plate reader.

[3] = tested on: PI3K/Akt pathway in SkBr3 cells; assay: Western blotting of PI3K/Akt signaling in SkBr3 cells; format: cell-based, human; settings: SkBr3, 1–50 μM, 6 h
Description: It has been shown that breast tumor cell growth is closely related to the activation of the PI3K/Akt pathway. […] Therefore, we evaluated the effects of HS-133 on the PI3K/Akt pathway in breast cancer cells. The PI3K inhibitory activity of HS-133 was assessed in the SkBr3 cells.
as §1, with “NJ). The primary mouse antibodies against the following factors were used: p27 (Cell Signaling Technologies, Danvers, MA), cyclin D1, hypoxia-inducible factor-1α (HIF-1α, BD Biosciences, SanJose, CA), VEGF (Novus Biologicals, Littleton, CO) and β-actin (Abcam, Cambridge, MA).” for “NJ).”

[4] = tissue distribution, tissue-to-plasma ratio; format: in vivo, BALB/c nude mice bearing SkBr3 xenograft; settings: BALB/c nude, mouse, PO 10 mg/kg, 30 min post-dose
Excerpt: Various tissue concentrations, such as the heart, lung, liver, kidney, spleen, brain, and tumor in BALB/c nude mice bearing SkBr3 xenograft are shown in Fig. 9B. The ratios of each tissue-to-plasma (KP value) were 3.26, 4.18, 0.11, 1.99, 3.07, 4.99, and 2.06 for the heart, lung, liver, kidney, spleen, brain, and tumor, respectively. […] Thus, this high concentration level of HS-133 in tumor tissues may be contributed to in vivo efficacy in the SkBr3 xenograft model.
The heart, lung, liver, kidney, brain, spleen, and tumor were collected at 30 min post-dose from 3 different animals at each time point, rinsed with ice-cold saline, weighed and stored at −80°C until analysis. For HS-133 quantification, mouse tissues were homogenized with three times the volume of PBS. The homogenates were extracted by protein precipitation with acetonitrile. LC-MS/MS analysis was conducted as described for the plasma. The homogenate concentrations were converted to tissue concentrations for the calculations of each tissue-to-plasma ratio.

HUVECs [5] = assay: wound migration assay; format: cell-based, human; settings: HUVECs, 1, 5, or 10 μM, 18 h
Description: (§2) To examine the effect of HS-133 on angiogenesis, a capillary tube formation assay using human umbilical vein endothelial cells (HUVECs) was performed. […] Cell migration is critical for the endothelial cells to form blood vessels during angiogenesis, and is necessary for tumor growth and metastasis. Thus, we conducted a wound migration assay to study the effect of HS-133 on cell migration. […] Considering that endothelial migration and tube formation have all highly relevant properties of angiogenesis, our results illustrated that HS-133 has the ability to block angiogenesis.
HUVECs plated on 60 mm-diameter culture dishes at 90% confluence, were wounded 2 mm in width with a sterile razor blade and marked at the injury line. […] HUVECs were allowed to migrate for 18 h and were rinsed with a serum-free medium, followed by fixing with absolute methanol and staining with Giemsa (Sigma-Aldrich). Migration was quantitated with counting the number of cells that moved beyond the reference line.

HUVECs [6] = assay: tube formation assay; format: cell-based, human; settings: 20 h
Description: as §2
A 10 mg/ml (200 μl) of Matrigel (BD Biosciences) was polymerized for 30 min at 37°C. HUVECs were suspended in M199 (2% FBS) medium containing VEGF (50 ng/ml) at a density of 2.5 × 10^5 cells/ml, and 0.2 ml of cell suspension was added to each well coated with Matrigel, together with or without the indicated concentrations of HS-133 for 20 h. The morphological changes of the cells and tubes formed were observed under a phase-contrast microscope and photographed at 200× and 400× magnification.

CC(=O)Nc1ccc(-c2nc3c(c(=O)n(C)c(=O)n3C)n2-c2cccc(F)c2)cc1 [HS-133, N-(4-(7-(3-Fluorophenyl)-1,3-dimethyl-2,6-dioxo-2,3,6,7-tetrahydro-1H-purin-8-yl)phenyl) acetamide]
Tmax ([1]; ICR, po, 5 mg/kg, p.o. 5 mg/kg): ~4.8 h
AUC(0-inf) ([1]; iv, i.v. 5 mg/kg): 3410 ng·h/mL
MRT ([1]; iv, i.v. 5 mg/kg): 8.2 ± 0.8 h
clearance ([1]; iv, i.v. 5 mg/kg): 24.7 mL/min/kg
AUC(0-t) ([1]; iv, i.v. 5 mg/kg): 3190 ng·h/mL
half-life ([1]; iv, i.v. 5 mg/kg): 6.4 ± 0.92 h
Vd ([1]; iv, i.v. 5 mg/kg, read-out: Vss): 12 L/kg
bioavailability ([1]; oral, p.o. vs i.v. 5 mg/kg, read-out: F (bioavailability)): 95.6%
AUC(0-inf) ([1]; po, p.o. 5 mg/kg): 3260 ng·h/mL
Cmax ([1]; po, p.o. 5 mg/kg): 236 ± 34 ng/mL
MRT ([1]; po, p.o. 5 mg/kg): 9.5 ± 1.9 h
AUC(0-t) ([1]; po, p.o. 5 mg/kg): 3000 ng·h/mL
half-life ([1]; po, p.o. 5 mg/kg): 6.1 ± 1.4 h
hypoxia-induced HIF-1α expression ([2]; SkBr3, 1–50 μM, 100 μM CoCl2, 16 h): inhibited the hypoxia-induced HIF-1α expression
hypoxia-induced VEGF expression and production ([2]; SkBr3, CoCl2, Western blotting and ELISA): suppress the VEGF expression and production in a dose-dependent manner
phosphorylation of Akt, mTOR, p70S6K and 4E-BP1 [3]: effectively suppressed
Kp at 0.5 h ([4]; brain, read-out: tissue-to-plasma ratio (KP value), brain): 4.99
Kp at 0.5 h ([4]; heart, read-out: tissue-to-plasma ratio (KP value), heart): 3.26
Kp at 0.5 h ([4]; kidney, read-out: tissue-to-plasma ratio (KP value), kidney): 1.99
Kp at 0.5 h ([4]; liver, read-out: tissue-to-plasma ratio (KP value), liver): 0.11
Kp at 0.5 h ([4]; lung, read-out: tissue-to-plasma ratio (KP value), lung): 4.18
Kp at 0.5 h ([4]; spleen, read-out: tissue-to-plasma ratio (KP value), spleen): 3.07
Kp at 0.5 h ([4]; tumor, read-out: tissue-to-plasma ratio (KP value), tumor): 2.06
cell migration (HUVECs [5]): significantly inhibited
capillary tube formation (HUVECs [6]): inhibited the formation of vessel-like structures
